Patent EP1311531B1, “STEROID DERIVED ANTIBIOTICS” (Brigham Young University, priority 2000, dated 2002)
≈ marks a conversion by molar mass, not a printed value. Read-outs that look alike come from different tables or passages of the source.

Legend:
[1] = system: Escherichia coli ATCC 25922; assay: MIC and MBC measurement; format: cell-based
From the text: (§1) General: Microorganisms. Reference strains were purchased from the American Type Culture Collection (Rockville, MD) or Bactrol disks from Difeo Laboratories (Detroit, MI). The following specific ATCC strains were used: 10798 Escherichia coli, 25922 Escherichia coli, 13883 Klebsiella pneumoniae, 27853 Pseudomonas aeruginosa, 14028 Salmonella typhimurium, 29212 Enterococcus faecalis, 25923 Staphylococcus aureus, 19615 Streptococcus pyogenes, and 90028 Candida albicans. Bacterial strains were maintained on Mueller-Hinton agar plates, and Candida albicans was maintained on Sabouraud Dextrose agar plates.
(§2) Tryptic soy broth (TSB) was made by dissolving 27.5 grams of tryptic soy broth without dextrose (DIFCO Laboratories) in 1 liter of deionized water and sterilizing at 121 °C for 15 minutes. Solid agar (TSA) plates were made by dissolving 6.4 grams of tryptic soy broth and 12 grams of agar (purified grade, Fischer Scientific) in 800 mL of deionized water and sterilizing at 121 °C for 20 minutes. Aliquots (20 mL) of the homogeneous solution were then poured in sterile plastic petri dishes (100 x 15 mm, Fisher Scientific). Solutions of compounds were made by dissolving the HCl salt of the respective compound into an appropriate amount of deionized and sterilized water followed by microfiltration.
(§3) Aliquots of 1 mL of the suspension were added to test tubes containing 1 mL TSB and incrementally varied concentrations of cholic acid derivatives and/or erythromycin or novobiocin. In the sensitization experiments, erythromycin or novobiocin were added 15 minutes later than the cholic acid derivatives. The samples were subjected to stationary incubation at 37°C for 24 hours. Sample turbidity was determined by measuring absorption at 760 nm (HP 8453 UV-Visible Chemstation, Hewlett Packard). Additionally, an alliquot from each of the samples showing no measurable turbidity was subcultured on TSA plates (alliquots were diluted to provide fewer than 300 CFU). Colonies that grew on the subculture after overnight incubation were counted and the number of CFU/mL in the samples were calculated. The calculated values were compared to the number of CFU/mL in the original inoculum. […]

[2] = system: E. coli (ATCC 10798); assay: Sensitization to erythromycin or novobiocin (outer membrane permeabilization, FIC); format: cell-based, Escherichia coli; details: E. coli (ATCC 10798); for MBC: Escherichia coli
Experimental: (§4) FICs can be performed by checkerboard titrations of compounds in one dimension of a microtiter plate, and of antibiotics in the other dimension, for example. The FIC is calculated by looking at the impact of one antibiotic on the MIC of the other and vice versa. […] Preferably, an FIC of less than 0.5 is obtained for synergism. As used herein, FIC can be determined as follows: FIC = (MIC(compound in combination))/(MIC(compound alone)) + (MIC(antibiotic in combination))/(MIC(antibiotic alone)) [formula]
(§5) Aliquots of 1 mL of the suspension were added to test tubes containing 1 mL TSB and incrementally varied concentrations of cholic acid derivatives and/or erythromycin or novobiocin. In the sensitization experiments, erythromycin or novobiocin were added 15 minutes later than the cholic acid derivatives. The samples were subjected to stationary incubation at 37°C for 24 hours. Sample turbidity was determined by measuring absorption at 760 nm (HP 8453 UV-Visible Chemstation, Hewlett Packard). Additionally, an alliquot from each of the samples showing no measurable turbidity was subcultured on TSA plates (alliquots were diluted to provide fewer than 300 CFU). Colonies that grew on the subculture after overnight incubation were counted and the number of CFU/mL in the samples were calculated. The calculated values were compared to the number of CFU/mL in the original inoculum.
They were also tested for the ability to permeabilize the outer membrane of Gram-negative bacteria, causing sensitization to hydrophobic antibiotics that cannot cross the outer membrane. The permeabilization of the outer membrane was measured using erythromycin and novobiocin.

[3] = system: Escherichia coli ATCC 25922; assay: Sensitization to erythromycin, novobiocin or rifampicin (permeabilization, FIC); details: for c: concentration of the compounds required to lower the MIC of erythromycin from 30 to 1 µg/mL: Table 16, with E. coli
Experimental: FICs can be performed by checkerboard titrations of compounds in one dimension of a microtiter plate, and of antibiotics in the other dimension, for example. The FIC is calculated by looking at the impact of one antibiotic on the MIC of the other and vice versa. […] As used herein, FIC can be determined as follows: FIC = (MIC(compound in combination))/(MIC(compound alone)) + (MIC(antibiotic in combination))/(MIC(antibiotic alone)) [formula]

[4] = system: Pseudomonas aeruginosa ATCC 27853; assay: MIC and MBC measurement; format: cell-based; details: ATCC27853, Table 6, P. aureginosa (ATCC 27853)
Experimental: (§6) General: Microorganisms. Reference strains were purchased from the American Type Culture Collection (Rockville, MD) or Bactrol disks from Difeo Laboratories (Detroit, MI). […] Bacterial strains were maintained on Mueller-Hinton agar plates, and Candida albicans was maintained on Sabouraud Dextrose agar plates.
(§7) Aliquots (20 mL) of the homogeneous solution were then poured in sterile plastic petri dishes (100 x 15 mm, Fisher Scientific). Solutions of compounds were made by dissolving the HCl salt of the respective compound into an appropriate amount of deionized and sterilized water followed by microfiltration.
(§8) Aliquots of 1 mL of the suspension were added to test tubes containing 1 mL TSB and incrementally varied concentrations of cholic acid derivatives and/or erythromycin or novobiocin. […] Additionally, an alliquot from each of the samples showing no measurable turbidity was subcultured on TSA plates (alliquots were diluted to provide fewer than 300 CFU). Colonies that grew on the subculture after overnight incubation were counted and the number of CFU/mL in the samples were calculated. The calculated values were compared to the number of CFU/mL in the original inoculum.

[5] = system: Pseudomonas aeruginosa ATCC 27853; assay: Sensitization to erythromycin, novobiocin or rifampicin (permeabilization, FIC); format: cell-based; details: P. aureginosa (ATCC 27853)
Experimental: as §4, §5
Concentrations of 0.5, 1.0 or 3.0 µg/mL of these antibiotics were used, and the concentrations of the cholic acid derivatives required to inhibit bacterial growth of Gram-negative strains were determined.

[6] = system: E. coli (ATCC 10798); assay: MIC and MBC measurement; format: cell-based, Escherichia coli; details: Escherichia coli, ATCC10798, Table 1, E. coli (ATCC 10798)
Experimental: as §6, §7, §8

[7] = system: Staphylococcus aureus ATCC 25923; assay: MIC and MBC measurement; format: cell-based; details: Table 16 (MIC^a), S. aureus (ATTC 25923)
From the text: as §1, §2, §3

[8] = Minimum hemolytic concentration (MHC); format: cell-based; details: Table 16
Experimental: Minimum inhibition concentrations (MIC) and minimum hemolytic concentrations (MHC) were measured as described in Li et al., Antimicrob. Agents. Chemother., 1999, 43, 1347. […]

[9] = system: Gram-negative bacteria; assay: MIC and permeabilization measurements, strain not stated (Table 14, Fig. 5); details: for activity as a permeabilizer: in words
[10] = Stability (half-lives) in phosphate buffer, decomposition observed via HPLC; format: physicochemical; details: 50 mM phosphate buffer, room temperature; for stabilities (half-lives) pH 2.0: pH 2.0, approximately 10 mM; for stabilities (half-lives) pH 7.0: pH 7.0, approximately 10 mM; for stabilities (half-lives) pH 12.0: pH 12.0, approximately 10 mM
Experimental: Compounds 352 - 354 were dissolved in 50 mM phosphate buffered water (pH 2.0, 7.0 or 12.0) at approximately 10 mM concentrations. […] These compounds were used since they contain a chromophore that facilitated monitoring of decomposition by absorption methods common in the HPLC apparatus used.

[11] = Escherichia coli, ATCC25922, Table 16 (MIC^b), E. coli (ATTC 25922), read-out: MIC
[12] = Staphylococcus aureus, ATCC25923, read-out: MIC

C[C@H](CCCN(C)Cc1ccccc1)[C@H]1CC[C@H]2[C@@H]3[C@H](OCCNC(=N)N)C[C@@H]4C[C@H](OCCNC(=N)N)CC[C@]4(C)[C@H]3C[C@H](OCCNC(=N)N)[C@]12C [Compound 4]
MBC ([1]; Escherichia coli, ATCC25922, Table 4, E. coli (ATCC 25922)): 9 µg/mL (≈ 12 µM) | MIC ([1]; Escherichia coli, ATCC25922, Table 4, E. coli (ATCC 25922), read-out: MIC): 6 µg/mL (≈ 7.97 µM) | MBC ([2]; ATCC10798, Table 2, with erythromycin): 10 µg/mL | MBC ([2]; ATCC10798, Table 3, with novobiocin): 10 µg/mL | concentration required to lower the MIC of erythromycin from 70 µg/mL to 1 µg/mL ([2]; Table 2, with erythromycin): 1.5 µg/mL | MBC ([3]; Escherichia coli, ATCC25922): 5 µg/mL | concentration required to lower the MIC of erythromycin from 60 µg/mL to 1 µg/mL ([3]; Table 5, E. coli (ATCC 25922), with erythromycin): 1 µg/mL | MBC [4]: 40 µg/mL (≈ 53.1 µM) | MIC [4]: 15 µg/mL (≈ 19.9 µM) | MBC ([5]; Pseudomonas aeruginosa, ATCC27853, Table 7, with erythromycin): 40 µg/mL | concentration required to lower the MIC of erythromycin from 240 µg/mL to 5 µg/mL ([5]; Table 7, with erythromycin): 5 µg/mL | concentration required to lower the MIC of novobiocin from >500 µg/mL to 1 µg/mL ([5]; Table 8, with novobiocin): 6 µg/mL | MBC ([6]; read-out: MBC): 10 µg/mL (≈ 13.3 µM) | MIC ([6]; read-out: MIC): 5 µg/mL (≈ 6.64 µM)

C[C@H](CCC(=O)OCC[N+](C)(C)C)[C@H]1CC[C@H]2[C@@H]3[C@H](OC(=O)CN)C[C@@H]4C[C@H](OC(=O)CN)CC[C@]4(C)[C@H]3C[C@H](OC(=O)CN)[C@]12C [Compound 324]
MIC [1, 11]: 60 µg/mL | MIC [7, 12]: 15 µg/mL | MHC [8]: >200 µg/mL | c: concentration of the compounds required to lower the MIC of erythromycin from 30 to 1 µg/mL [3]: 10 µg/mL

C[C@H](CCCO)[C@H]1CC[C@H]2[C@@H]3[C@H](NC(=O)CCCCCN)C[C@@H]4C[C@H](NC(=O)CCCCCN)CC[C@]4(C)[C@H]3C[C@H](NC(=O)CCCCCN)[C@]12C [Compound 211]
activity as a permeabilizer [9]: less active than 209c as a permeabilizer

C[C@H](CCCN(C)Cc1ccccc1)[C@H]1CC[C@H]2[C@@H]3[C@H](OC(=O)CCN)C[C@@H]4C[C@H](OC(=O)CCN)CC[C@]4(C)[C@H]3C[C@H](OC(=O)CCN)[C@]12C [Compound 353]
stabilities (half-lives) pH 2.0 [10]: >37 days | stabilities (half-lives) pH 7.0 [10]: 37 days | stabilities (half-lives) pH 12.0 [10]: <30 minutes

CC(CCCO)C1CCC2C3C(NC(=O)C(N)CCCCN)CC4CC(NC(=O)C(N)CCCCN)CCC4(C)C3CC(NC(=O)C(N)CCCCN)C12C (stereo not shown) [Compound 209c]
MIC ([9]; Table 14): 85 µg/mL (≈ 110 µM) | a: concentration of cholic acid derivatives required to lower MIC of erythromycin to 1 µg/ML ([9]; Table 14): 45 µg/mL | b: concentration of cholic acid derivatives required to lower MIC of novobiocin to 1 µg/ML ([9]; Table 14): 60 µg/mL

C[C@H](CCC(=O)OCC[N+](C)(C)C)[C@H]1CC[C@H]2[C@@H]3[C@H](OC(=O)CCCN)C[C@@H]4C[C@H](OC(=O)CCCN)CC[C@]4(C)[C@H]3C[C@H](OC(=O)CCCN)[C@]12C [Compound 326]
MIC [1, 11]: 23 µg/mL | MIC [7, 12]: 14 µg/mL | MHC [8]: >200 µg/mL | c: concentration of the compounds required to lower the MIC of erythromycin from 30 to 1 µg/mL [3]: 2.0 µg/mL

C[C@H](CCC(=O)O)[C@H]1CC[C@H]2[C@@H]3[C@H](OC(=O)CN)C[C@@H]4C[C@H](OC(=O)CN)CC[C@]4(C)[C@H]3C[C@H](OC(=O)CN)[C@]12C [Compound 327]
MIC ([1]; Table 16, second MIC column (MIC^b), E. coli (ATTC 25922)): >100 µg/mL | MIC [7]: >100 µg/mL | MHC [8]: >100 µg/mL | c: concentration of the compounds required to lower the MIC of erythromycin from 30 to 1 µg/mL [3]: >100 µg/mL

C[C@H](CCCN(C)Cc1ccccc1)[C@H]1CC[C@H]2[C@@H]3[C@H](OC(=O)CCCN)C[C@@H]4C[C@H](OC(=O)CCCN)CC[C@]4(C)[C@H]3C[C@H](OC(=O)CCCN)[C@]12C [Compound 354]
stabilities (half-lives) pH 2.0 [10]: 33 days | stabilities (half-lives) pH 7.0 [10]: 12 days | stabilities (half-lives) pH 12.0 [10]: <30 minutes

C[C@H](CCC(=O)OCC[N+](C)(C)C)[C@H]1CC[C@H]2[C@@H]3[C@H](OC(=O)CCN)C[C@@H]4C[C@H](OC(=O)CCN)CC[C@]4(C)[C@H]3C[C@H](OC(=O)CCN)[C@]12C [Compound 325]
MIC [1, 11]: 30 µg/mL | MIC [7, 12]: 11 µg/mL | MHC [8]: >200 µg/mL | c: concentration of the compounds required to lower the MIC of erythromycin from 30 to 1 µg/mL [3]: 2.0 µg/mL

C[C@H](CCCN(C)Cc1ccccc1)[C@H]1CC[C@H]2[C@@H]3[C@H](OC(=O)CN)C[C@@H]4C[C@H](OC(=O)CN)CC[C@]4(C)[C@H]3C[C@H](OC(=O)CN)[C@]12C [Compound 352]
stabilities (half-lives) pH 2.0 [10]: >37 days | stabilities (half-lives) pH 7.0 [10]: 28 days | stabilities (half-lives) pH 12.0 [10]: <30 minutes

C[C@H](CCCO)[C@H]1CC[C@H]2[C@@H]3[C@H](N)C[C@@H]4C[C@H](N)CC[C@]4(C)[C@H]3C[C@H](N)[C@]12C [Compound 206]
activity as a permeabilizer [9]: ineffective as a permeabilizer

CCCCCCCCOC(=O)CC[C@@H](C)[C@H]1CC[C@H]2[C@@H]3[C@H](OC(=O)CN)C[C@@H]4C[C@H](OC(=O)CN)CC[C@]4(C)[C@H]3C[C@H](OC(=O)CN)[C@]12C [Compound 341]
MIC [1, 11]: 1 µg/mL (≈ 1.45 µM) | MIC [7, 12]: 1.8 µg/mL (≈ 2.6 µM) | MHC [8]: 4.0 µg/mL | c: concentration of the compounds required to lower the MIC of erythromycin from 30 to 1 µg/mL [3]: 0.7 µg/mL

CCCCCCCCOC(=O)CC[C@@H](C)[C@H]1CC[C@H]2[C@@H]3[C@H](OC(=O)CCCN)C[C@@H]4C[C@H](OC(=O)CCCN)CC[C@]4(C)[C@H]3C[C@H](OC(=O)CCCN)[C@]12C [Compound 343]
MIC [1, 11]: 3.5 µg/mL (≈ 4.51 µM) | MIC [7, 12]: 1.2 µg/mL (≈ 1.55 µM) | MHC [8]: <10 µg/mL | c: concentration of the compounds required to lower the MIC of erythromycin from 30 to 1 µg/mL [3]: 3.5 µg/mL
